Assays:
Test in all cases: In vitro antibacterial evaluation: minimum inhibitory concentration (MIC), broth dilution method
Type in all cases: cell-based
Enterococcus sp. = system: Enterococcus sp.
Outline: (§1)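 An MIC is reported for each organism as the least concentration giving inhibition, using broth dilution over 64-0.06 μg/mL with a 5×10^5 CFU/mL inoculum.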

Staphylococcus sp. = conditions: broth dilution, 18 hours at 35° C.
Outline: as §1

Escherichia coli = system: Escherichia coli
Outline: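 Values are minimum inhibitory concentrations, meaning the smallest antibiotic concentration that stops growth of the organism. They come from broth dilution in Muller-Hinton II […] per NCCLS guidance (M7-A2), using 5×10^5 CFU/mL and concentrations from 64 to 0.06 μg/mL.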

Streptococcus sp. = system: Streptococcus sp.
Outline: as §1

[1] = broth dilution, inoculum 5×10^5 CFU/mL, 18 hours at 35° C.

CC(c1ccccc1)C1NC(=O)CNC(=O)C(CO)NC(=O)C(C(O)C2CNC(=N)N2C2OC(CO)C(O)C(O)C2O)NC(=O)C(C(O)C2CNC(=N)N2)NC(=O)C(Cc2ccc(OC3OC(CO)C(OC4OC5COC(c6ccc(-c7cccs7)cc6)OC5C(O)C4O)C(O)C3O)cc2)NC1=O (stereo not drawn) [Example 163, Cyclo[glycyl-β-methylphenylalanyl-O-[4-O-[4,6-O-[4-(2-thienyl)benzylidene]hexopyranosyl]-hexopyranosyl]tyrosyl-3-(2-iminoimidazolidin-4-yl)seryl-3-(3-hexopyranosyl-2-iminoimidazolidin-4-yl)serylseryl]]
2 µg/mL: MIC Coagulase Negative Staphylococcus (GC 4551) (Staphylococcus sp.; 5×10^5 CFU/mL) | MIC Coagulase Negative Staphylococcus (GC 6257) (Staphylococcus sp.; 5×10^5 CFU/mL) | MIC Coagulase Negative Staphylococcus (GC 4551) (Staphylococcus sp.; strain GC 4551) | MIC Coagulase Negative Staphylococcus (GC 6257) (Staphylococcus sp.; strain GC 6257)
4 µg/mL: MIC Enterococcus avium (GC 4558) (Enterococcus sp.; [1]) | MIC Enterococcus faecalis (GC 2242) (Enterococcus sp.; [1]) | MIC Enterococcus faecalis (GC 2691) (Enterococcus sp.; [1]) | MIC Enterococcus faecalis (GC 4553) (Enterococcus sp.; [1]) | MIC Enterococcus faecalis (GC 6189) (Enterococcus sp.; [1]) | MIC Enterococcus faecium (GC 4556) (Enterococcus sp.; [1]) | MIC Enterococcus faecalis (GC 2242) (Enterococcus sp.; strain GC 2242) | MIC Enterococcus faecalis (GC 2691) (Enterococcus sp.; strain GC 2691) | MIC Enterococcus faecalis (GC 4553) (Enterococcus sp.; strain GC 4553) | MIC Enterococcus faecium (GC 4556) (Enterococcus sp.; strain GC 4556) | MIC Enterococcus avium (GC 4558) (Enterococcus sp.; strain GC 4558) | MIC Enterococcus faecalis (GC 6189) (Enterococcus sp.; strain GC 6189) | MIC Coagulase Negative Staphylococcus (GC 4549) (Staphylococcus sp.; 5×10^5 CFU/mL) | MIC Staphylococcus aureus (ATCC 29213) (Staphylococcus sp.; 5×10^5 CFU/mL) | MIC Staphylococcus aureus (GC 1131) (Staphylococcus sp.; 5×10^5 CFU/mL) | MIC Staphylococcus aureus (GC 4541) (Staphylococcus sp.; 5×10^5 CFU/mL) | MIC Staphylococcus aureus (GC 4542) (Staphylococcus sp.; 5×10^5 CFU/mL) | MIC Staphylococcus aureus (GC 4544) (Staphylococcus sp.; 5×10^5 CFU/mL) | MIC Staphylococcus aureus (GC 4545) (Staphylococcus sp.; 5×10^5 CFU/mL) | MIC Staphylococcus haemolyticus (GC 4546) (Staphylococcus sp.; 5×10^5 CFU/mL) | MIC Staphylococcus aureus (ATCC 29213) (Staphylococcus sp.; strain ATCC 29213) | MIC Staphylococcus aureus (GC 1131) (Staphylococcus sp.; strain GC 1131) | MIC Staphylococcus aureus (GC 4541) (Staphylococcus sp.; strain GC 4541) | MIC Staphylococcus aureus (GC 4542) (Staphylococcus sp.; strain GC 4542) | MIC Staphylococcus aureus (GC 4544) (Staphylococcus sp.; strain GC 4544) | MIC Staphylococcus aureus (GC 4545) (Staphylococcus sp.; strain GC 4545) | MIC Staphylococcus haemolyticus (GC 4546) (Staphylococcus sp.; strain GC 4546) | MIC Coagulase Negative Staphylococcus (GC 4549) (Staphylococcus sp.; strain GC 4549)
64 µg/mL: MIC Escherichia coli (GC 4559) (Escherichia coli; strain GC 4559)
>64 µg/mL: MIC Escherichia coli (ATCC 25922) (Escherichia coli; strain ATCC 25922)
1 µg/mL: MIC Coagulase Negative Staphylococcus (GC 4548) (Staphylococcus sp.; 5×10^5 CFU/mL) | MIC Staphylococcus aureus-SMITH (GC 4543) (Staphylococcus sp.; 5×10^5 CFU/mL) | MIC Staphylococcus aureus-SMITH (GC 4543) (Staphylococcus sp.; strain GC 4543) | MIC Coagulase Negative Staphylococcus (GC 4548) (Staphylococcus sp.; strain GC 4548) | MIC Streptococcus pneumoniae (GC 4565) (Streptococcus sp.; [1]) | MIC Streptococcus pneumoniae (GC 4565) (Streptococcus sp.; strain GC 4565)
8 µg/mL: MIC Enterococcus faecalis (ATCC 29212) (Enterococcus sp.; [1]) | MIC Enterococcus faecalis (GC 3059) (Enterococcus sp.; [1]) | MIC Enterococcus faecalis (GC 4552) (Enterococcus sp.; [1]) | MIC Enterococcus faecalis (GC 4554) (Enterococcus sp.; [1]) | MIC Enterococcus faecium (GC 2243) (Enterococcus sp.; [1]) | MIC Enterococcus faecium (GC 4557) (Enterococcus sp.; [1]) | MIC Enterococcus faecalis (ATCC 29212) (Enterococcus sp.; strain ATCC 29212) | MIC Enterococcus faecium (GC 2243) (Enterococcus sp.; strain GC 2243) | MIC Enterococcus faecalis (GC 3059) (Enterococcus sp.; strain GC 3059) | MIC Enterococcus faecalis (GC 4552) (Enterococcus sp.; strain GC 4552) | MIC Enterococcus faecalis (GC 4554) (Enterococcus sp.; strain GC 4554) | MIC Enterococcus faecium (GC 4557) (Enterococcus sp.; strain GC 4557) | MIC Coagulase Negative Staphylococcus (GC 4547) (Staphylococcus sp.; 5×10^5 CFU/mL) | MIC Staphylococcus aureus (GC 3051) (Staphylococcus sp.; 5×10^5 CFU/mL) | MIC Staphylococcus aureus (GC 3053) (Staphylococcus sp.; 5×10^5 CFU/mL) | MIC Staphylococcus aureus (GC 3051) (Staphylococcus sp.; strain GC 3051) | MIC Staphylococcus aureus (GC 3053) (Staphylococcus sp.; strain GC 3053) | MIC Coagulase Negative Staphylococcus (GC 4547) (Staphylococcus sp.; strain GC 4547) | MIC Escherichi coli (GC 4560) (Escherichia coli; strain GC 4560)
<0.5 µg/mL: MIC Streptococcus agalactiae (GC 4564) (Streptococcus sp.; [1]) | MIC Streptococcus pneumoniae (ATCC 6301) (Streptococcus sp.; [1]) | MIC Streptococcus pneumoniae (GC 1894) (Streptococcus sp.; [1]) | MIC Streptococcus pyogenes (GC 4563) (Streptococcus sp.; [1]) | MIC Streptococcus pneumoniae (ATCC 6301) (Streptococcus sp.; strain ATCC 6301) | MIC Streptococcus pneumoniae (GC 1894) (Streptococcus sp.; strain GC 1894) | MIC Streptococcus pyogenes (GC 4563) (Streptococcus sp.; strain GC 4563) | MIC Streptococcus agalactiae (GC 4564) (Streptococcus sp.; strain GC 4564)

— patent US8247211B2, “Glycopeptide antibiotics” (American Cyanamid Company, priority 2001, dated 2012)
